The NIST ThermoML archive (doi:10.1021/je0504212)

Columns and labels:
[1] = 308.5 K; 101.33 kPa; Liquid
[2] = excess molar enthalpy (molar enthalpy of mixing); xn = mol fraction of the nth substance listed; details: 308.15 K, 101 kPa, Liquid, Flow calorimetry

CCOCCOCC [1,2-diethoxyethane]
Details	mass density [kg/m3]
[1]	826.22

CCOCCOCC [1,2-diethoxyethane] + OCc1ccccc1
[2]
Details	excess molar enthalpy [kJ/mol]
x1 = 0.0296	-0.0494
x1 = 0.0575	-0.122
x1 = 0.0838	-0.202
x1 = 0.1087	-0.276
x1 = 0.1546	-0.3981
x1 = 0.196	-0.4781
x1 = 0.2678	-0.5489
x1 = 0.3278	-0.5536
x1 = 0.4225	-0.5121
x1 = 0.5232	-0.449
x1 = 0.594	-0.3957
x1 = 0.687	-0.286
x1 = 0.7453	-0.183
x1 = 0.8144	-0.0385
x1 = 0.8541	0.0428
x1 = 0.8977	0.11
x1 = 0.9461	0.124

COCCOC [1,2-dimethoxyethane]
Details	mass density [kg/m3]
[1]	850.28

COCCOC [1,2-dimethoxyethane] + OCc1ccccc1
[2]
Details	excess molar enthalpy [kJ/mol]
x1 = 0.0395	0.0723
x1 = 0.076	0.0567
x1 = 0.1098	0.0029
x1 = 0.1413	-0.0625
x1 = 0.1979	-0.182
x1 = 0.2476	-0.265
x1 = 0.3305	-0.335
x1 = 0.3969	-0.335
x1 = 0.4968	-0.261
x1 = 0.5969	-0.122
x1 = 0.6638	0.0128
x1 = 0.7476	0.227
x1 = 0.7979	0.3643
x1 = 0.8555	0.4893
x1 = 0.8876	0.517
x1 = 0.9221	0.4859
x1 = 0.9595	0.3449

CCOCCOCCOCCO [2-(2-(2-ethoxyethoxy)ethoxy)ethanol]
Details	mass density [kg/m3]
[1]	1008.8

CCOCCOCCOCCO [2-(2-(2-ethoxyethoxy)ethoxy)ethanol] + OCc1ccccc1
[2]
Details	excess molar enthalpy [kJ/mol]
x1 = 0.0241	-0.197
x1 = 0.047	-0.3533
x1 = 0.0689	-0.4763
x1 = 0.0898	-0.5746
x1 = 0.129	-0.7169
x1 = 0.1648	-0.8135
x1 = 0.2284	-0.9273
x1 = 0.283	-0.9874
x1 = 0.3719	-1.036
x1 = 0.4704	-1.03
x1 = 0.5422	-0.9851
x1 = 0.6398	-0.8691
x1 = 0.7031	-0.7647
x1 = 0.7804	-0.6104
x1 = 0.8257	-0.51
x1 = 0.8766	-0.3858
x1 = 0.9343	-0.227

CCOCCO [2-ethoxyethan-1-ol]
Details	mass density [kg/m3]
[1]	916

CCOCCO [2-ethoxyethan-1-ol] + OCc1ccccc1
[2]
Details	excess molar enthalpy [kJ/mol]
x1 = 0.0424	-0.0908
x1 = 0.0814	-0.162
x1 = 0.1173	-0.218
x1 = 0.1505	-0.266
x1 = 0.21	-0.336
x1 = 0.2617	-0.3853
x1 = 0.3471	-0.4414
x1 = 0.4148	-0.4607
x1 = 0.5154	-0.4578
x1 = 0.6147	-0.419
x1 = 0.6802	-0.3754
x1 = 0.7613	-0.302
x1 = 0.8097	-0.248
x1 = 0.8645	-0.177
x1 = 0.8948	-0.134
x1 = 0.9273	-0.0884
x1 = 0.9623	-0.0416

CCOCCOCCO [3,6-dioxa-1-octanol]
Details	mass density [kg/m3]
[1]	974.67

CCOCCOCCO [3,6-dioxa-1-octanol] + OCc1ccccc1
[2]
Details	excess molar enthalpy [kJ/mol]
x1 = 0.0289	-0.197
x1 = 0.0561	-0.346
x1 = 0.0819	-0.461
x1 = 0.1063	-0.5515
x1 = 0.1514	-0.6808
x1 = 0.1921	-0.7696
x1 = 0.2629	-0.8717
x1 = 0.3223	-0.9193
x1 = 0.4164	-0.9413
x1 = 0.517	-0.8963
x1 = 0.588	-0.8322
x1 = 0.6816	-0.7117
x1 = 0.7405	-0.6172
x1 = 0.8106	-0.487
x1 = 0.8509	-0.4008
x1 = 0.8954	-0.296
x1 = 0.9448	-0.165

OCc1ccccc1 [benzenemethanol]
Details	mass density [kg/m3]
[1]	1033.64

OCc1ccccc1 [benzenemethanol] + CCCCOCCCC
[2]
Details	excess molar enthalpy [kJ/mol]
x2 = 0.0247	-0.0067
x2 = 0.0481	0.001
x2 = 0.0705	0.0178
x2 = 0.0918	0.0403
x2 = 0.1317	0.0927
x2 = 0.1682	0.149
x2 = 0.2327	0.253
x2 = 0.288	0.3435
x2 = 0.3776	0.4754
x2 = 0.4765	0.5882
x2 = 0.5482	0.6422
x2 = 0.6454	0.6809
x2 = 0.7082	0.6883
x2 = 0.7845	0.6726
x2 = 0.8292	0.6413
x2 = 0.8792	0.5697
x2 = 0.9357	0.4007

CCOCCOCCOCC [diethylene glycol diethyl ether]
Details	mass density [kg/m3]
[1]	893.08

CCOCCOCCOCC [diethylene glycol diethyl ether] + OCc1ccccc1
[2]
Details	excess molar enthalpy [kJ/mol]
x1 = 0.0234	-0.168
x1 = 0.0458	-0.304
x1 = 0.0672	-0.4167
x1 = 0.0876	-0.5083
x1 = 0.1259	-0.6473
x1 = 0.1611	-0.7418
x1 = 0.2236	-0.8493
x1 = 0.2774	-0.8916
x1 = 0.3655	-0.8906
x1 = 0.4635	-0.8255
x1 = 0.5353	-0.7498
x1 = 0.6334	-0.6247
x1 = 0.6973	-0.5306
x1 = 0.7756	-0.4016
x1 = 0.8217	-0.32
x1 = 0.8736	-0.225
x1 = 0.9325	-0.115

OCCOCCO [diethylene glycol]
Details	mass density [kg/m3]
[1]	1105.86

OCCOCCOCCO [triethylene glycol]
Details	mass density [kg/m3]
[1]	1112.59
